Data published in the supplement of paper PMC11061612.

How the values were obtained:
[1] = compound: C1CC(C1)(C(=O)[O-])C(=O)[O-].N.N.[Pt+2] [Carboplatin]; details: max 10 µM
Outline: (§1)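 Following 24 hours at 37°C and 5% CO2, cancer cell lines in 1536-well plates with 7.5 μl DMEM/F12 or RPMI and 10% FBS were dosed for 72 hours, final DMSO typically being 0.2%. CellTiter-Glo 2.0 luminescence, scaled between blank-well and DMSO-well means, gave the viability readout. Dose responses were fitted to a two-parameter logistic curve with a non-linear mixed effects model, and the single-agent IC50 was derived from this fit.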

[2] = compound: C1CN(CCC1(C(=O)N[C@@H](CCO)C2=CC=C(C=C2)Cl)N)C3=NC=NC4=C3C=CN4 [AZD5363]; details: max 10 µM
Outline: as §1

[3] = compound: C=CCn1c(=O)c2cnc(Nc3ccc(N4CCN(C)CC4)cc3)nc2n1-c1cccc(C(C)(C)O)n1 [AZD1775]; details: max 3 µM
Outline: as §1

[4] = compound: CC(=O)Nc1cccc(-n2c(=O)n(C3CC3)c(=O)c3c(Nc4ccc(I)cc4F)n(C)c(=O)c(C)c32)c1 [Trametinib]; details: max 1 µM
Outline: as §1

[5] = compound: CC(=O)O[C@H]1C(=O)[C@@]2(C)[C@H]([C@H](OC(=O)c3ccccc3)[C@]3(O)C[C@H](OC(=O)[C@H](O)[C@@H](NC(=O)c4ccccc4)c4ccccc4)C(C)=C1C3(C)C)[C@]1(OC(C)=O)CO[C@@H]1C[C@@H]2O [Paclitaxel]; details: max 3 µM
Outline: as §1

[6] = compound: CC(=O)c1c(C)c2cnc(Nc3ccc(N4CCNCC4)cn3)nc2n(C2CCCC2)c1=O [Palbociclib]; details: max 10 µM
Outline: as §1

[7] = compound: CC(C)n1c(=O)n(C)c2cnc3cc(F)c(-c4ccc(OCCCN5CCCCC5)nc4)cc3c21 [AZD1390]; details: max 0.3 µM
Outline: as §1

[8] = compound: CC1(C)CCC(CN2CCN(c3ccc(C(=O)NS(=O)(=O)c4ccc(NCC5CCOCC5)c([N+](=O)[O-])c4)c(Oc4cnc5[nH]ccc5c4)c3)CC2)=C(c2ccc(Cl)cc2)C1 [Venetoclax]; details: max 1 µM
Outline: as §1

[9] = compound: CC1=C(C(=CC=C1)Cl)NC(=O)C2=CN=C(S2)NC3=CC(=NC(=N3)C)N4CCN(CC4)CCO [Dasatinib]; details: max 2 µM
Outline: as §1

[10] = compound: CC1=CN2[C@@H](C1)C=NC3=CC(=C(C=C3C2=O)OC)OCCCCCOC4=C(C=C5C(=C4)N=C[C@@H]6CC(=CN6C5=O)C)OC [SG3199]; details: max 0.001 µM
Outline: as §1

[11] = compound: CCN(CCO)CCCOc1ccc2c(Nc3cc(CC(=O)Nc4cccc(F)c4)[nH]n3)ncnc2c1 [AZD2811]; details: max 1 µM
Outline: as §1

[12] = compound: CCc1c2c(nc3ccc(O)cc13)-c1cc3c(c(=O)n1C2)COC(=O)[C@]3(O)CC [SN-38]; details: max 0.3 µM
Outline: as §1

[13] = compound: CN(C)CCCOc1ccc(-c2ccc3ncc4c(c3c2)n(C2CCOCC2)c(=O)n4C)cn1 [AZD0156]; details: max 3 µM
Outline: as §1

[14] = compound: CN(CC[C@H](CSC1=CC=CC=C1)NC2=C(C=C(C=C2)S(=O)(=O)NC(=O)C3=CC=C(C=C3)N4CCC(CC4)[C@H](C5=CC=CC=C5C6=CC=C(C=C6)Cl)O)S(=O)(=O)C(F)(F)F)CCO [AZD4320]; details: max 1 µM
Outline: as §1

[15] = compound: COc1cc(Nc2ncc3c(n2)-c2ccc(Cl)cc2C(c2c(F)cccc2OC)=NC3)ccc1C(=O)O [Alisertib]; details: max 10 µM
Outline: as §1

[16] = compound: COc1cc([C@@H]2c3cc4c(cc3[C@@H](O[C@@H]3O[C@@H]5CO[C@@H](C)O[C@H]5[C@H](O)[C@H]3O)[C@H]3COC(=O)[C@H]23)OCO4)cc(OC)c1O [Etoposide]; details: max 10 µM
Outline: as §1

[17] = compound: COc1cc2ncnc(Nc3ccc(F)c(Cl)c3)c2cc1OCCCN1CCOCC1 [Gefitinib]; details: max 10 µM
Outline: as §1

[18] = compound: COc1cccc(OCCCN)c1-c1cc(Nc2cnc(C#N)cn2)n[nH]1 [Prexasertib]; details: max 1 µM
Outline: as §1

[19] = compound: COc1cccc2c1C(=O)c1c(O)c3c(c(O)c1C2=O)C[C@@](O)(C(=O)CO)C[C@@H]3O[C@H]1C[C@H](N)[C@H](O)[C@H](C)O1 [Doxorubicin]; details: max 1 µM
Outline: as §1

[20] = compound: COc1nnc2ccc(N3CCC(c4ccc(OCCN5CCN(C)C(=O)[C@H]5C)cc4)CC3)nn12 [AZD5153]; details: max 1 µM
Outline: as §1

[21] = compound: CS(=O)(=O)CCNCc1ccc(-c2ccc3ncnc(Nc4ccc(OCc5cccc(F)c5)c(Cl)c4)c3c2)o1 [Lapatinib]; details: max 10 µM
Outline: as §1

[22] = compound: C[C@@H](Nc1cc(F)cc(F)c1)c1cc(C(=O)N(C)C)cc2c(=O)cc(N3CCOCC3)oc12 [AZD8186]
Outline: as §1

[23] = compound: C[C@@H](Oc1cc(-c2cnn(C3CCNCC3)c2)cnc1N)c1c(Cl)ccc(F)c1Cl [Crizotinib]; details: max 10 µM
Outline: as §1

[24] = compound: C[C@@H](c1ccc2nccn2c1)n1nnc2ncc(-c3cnn(C)c3)nc21 [Savolitinib]; details: max 1 µM
Outline: as §1

[25] = compound: C[C@@H]1COCCN1C2=NC(=NC(=C2)C3(CC3)[S@](=N)(=O)C)C4=C5C=CNC5=NC=C4 [AZD6738]; details: max 10 µM
Outline: as §1

[26] = compound: Cc1c2c(nn1C)CSCc1cc(n(C)n1)CSc1cc(c3ccccc3c1)OCCCc1c(C(=O)O)n(C)c3c-2c(Cl)ccc13 [AZD5991]; details: max 1 µM
Outline: as §1

[27] = compound: Cc1cc2ncnn2cc1Nc1ncc2c(n1)n(C1CCOCC1)c(=O)n2C [AZD7648]; details: max 10 µM
Outline: as §1

[28] = compound: Cc1nc(-c2cn3c(n2)-c2ccc(-c4cnn(C(C)(C)C(N)=O)c4)cc2OCC3)n(C(C)C)n1 [Taselisib]; details: max 10 µM
Outline: as §1

[29] = compound: Cn1cnc2c(F)c(Nc3ccc(Br)cc3Cl)c(C(=O)NOCCO)cc21 [Selumetinib]; details: max 10 µM
Outline: as §1

[30] = compound: N#Cc1cnc(Nc2cc(NC[C@H]3CNCCO3)c(C(F)(F)F)cn2)cn1 [SRA737]; details: max 10 µM
Outline: as §1

[31] = compound: NC1(c2ccc(-c3nc4ccn5c(=O)[nH]nc5c4cc3-c3ccccc3)cc2)CCC1 [MK-2206]; details: max 10 µM
Outline: as §1

[32] = compound: O=C(Nc1ccc2[nH]nc(-c3ccncc3)c2c1)[C@@H]1CCN(CC(=O)N2CCN(c3ccc(-c4ncccn4)cc3)CC2)C1; details: max 5 µM
Outline: as §1

[33] = compound: O=C(c1cc(Cc2n[nH]c(=O)c3ccccc23)ccc1F)N1CCN(C(=O)C2CC2)CC1 [Olaparib]; details: max 10 µM
Outline: as §1

[34] = compound: O=c1[nH]cc(F)c(=O)[nH]1 [5-Fluorouracil]; details: max 20 µM
Outline: as §1

[35] = compound: Nc1ccn([C@@H]2O[C@H](CO)[C@@H](O)C2(F)F)c(=O)n1 [Gemcitabine]; details: max 0.3 µM
Outline: as §1

[36] = compound: C1CN(CCC1(C(=O)N[C@@H](CCO)C2=CC=C(C=C2)Cl)N)C3=NC=NC4=C3C=CN4 [Capivasertib]; details: max 10 µM
Outline: as §1

Cell Line	IC50, cell viability 72 h [1] [nM]	IC50, cell viability 72 h [2] [nM]	IC50, cell viability 72 h [3] [nM]	IC50, cell viability 72 h [4] [nM]	IC50, cell viability 72 h [5] [nM]	IC50, cell viability 72 h [6] [nM]	IC50, cell viability 72 h [7] [nM]	IC50, cell viability 72 h [8] [nM]	IC50, cell viability 72 h [9] [nM]	IC50, cell viability 72 h [10] [nM]	IC50, cell viability 72 h [11] [nM]	IC50, cell viability 72 h [12] [nM]	IC50, cell viability 72 h [13] [nM]	IC50, cell viability 72 h [14] [nM]	IC50, cell viability 72 h [15] [nM]	IC50, cell viability 72 h [16] [nM]	IC50, cell viability 72 h [17] [nM]	IC50, cell viability 72 h [18] [nM]	IC50, cell viability 72 h [19] [nM]	IC50, cell viability 72 h [20] [nM]	IC50, cell viability 72 h [21] [nM]	IC50, cell viability 72 h ([22]; max 10 µM) [nM]	IC50, cell viability 72 h [23] [nM]	IC50, cell viability 72 h [24] [nM]	IC50, cell viability 72 h [25] [nM]	IC50, cell viability 72 h [26] [nM]	IC50, cell viability 72 h [27] [nM]	IC50, cell viability 72 h [28] [nM]	IC50, cell viability 72 h [29] [nM]	IC50, cell viability 72 h [30] [nM]	IC50, cell viability 72 h [31] [nM]	IC50, cell viability 72 h [32] [nM]	IC50, cell viability 72 h [33] [nM]	IC50, cell viability 72 h [34] [nM]	IC50, cell viability 72 h [35] [nM]	IC50, cell viability 72 h [36] [nM]	IC50, cell viability 72 h ([22]; max 3 µM) [nM]
KP-3 (Pancreatic Carcinoma)	> 10000	> 10000	> 3000	> 1000	> 3000	> 10000	> 300	> 1000	> 2000	> 1	> 1000	> 300	> 3000	> 1000	> 10000	> 10000	> 10000	> 1000	> 1000	> 1000	> 10000	> 10000	> 10000	> 1000	> 10000	> 1000	> 10000	> 10000	> 10000	> 10000	> 10000	> 5000	> 10000	> 20000			
KU812 (Chronic Myelogenous Leukemia)	> 10000	> 10000	298	10.5	17.6	4050	> 300	> 1000	< 2	> 1	471	37.4	> 3000	267	701	9690	> 10000	20.5	567	36.6	> 10000	> 10000	260	> 1000	2150	235	> 10000	> 10000	260	9860	4070	160	> 10000	> 20000	27.1		
KY821 (Acute Myeloid Leukemia)			212	5.35		610	> 300	9.8	> 2000	> 1	> 1000	8.99	> 3000	4.53	28.6		> 10000	8.46	272	22.1	> 10000		4630	> 1000	3070	13.2	> 10000	90.7	623		> 10000		> 10000			> 10000	2700
OCI-AML3 (Acute Myeloid Leukemia)	> 10000	> 10000	615	2.98	4.57	5340	> 300	> 1000	> 2000		324	10.1	> 3000	> 1000		1270	> 10000			25.6	> 10000	> 10000	6530	> 1000	1810	250	> 10000	1440	91.9	5320	> 10000	156	> 10000	3070	5.04		
SU-DHL-5 (B-Cell Non-Hodgkin's Lymphoma)			363	1000		559	> 300	> 1000	10.8	> 1	9.84	1.38	> 3000	> 1000	359		> 10000	4.89	13	42.3	6610		1650	> 1000	457	8.62	6580	48.6	> 10000				3380			305	160
SUP-B15 (B-Lymphoblastic Leukemia)			692	627		> 10000	> 300	3.48	10.5	> 1	34	2.7	> 3000	2.13	38.4		> 10000	21.7	369	98	> 10000		1380	> 1000	2110	38.9	> 10000	> 10000	> 10000				2020			8510	> 3000
